“And” between values parts separate entries of the source, which are not always exact repeats. Equal entries are not always repeated.
How the values were obtained:
Type in all cases: functional, Homo sapiens
TERT-RPE1 = assay: (§1) Here: values are normalized to the negative (DMSO; defined as 0% autophagy induction) and positive (250nM Torin1; mTOR inhibitor; defined as maximal inducer of autophagy = 100%) control compounds and represented as % of autophagy induction. […] The impact of autophagy induction on cells is complex and depends on the affected target. As such, the magnitude of a phenotype may not be equally mirrored in the %-value of autophagy induction and vice versa. The dynamics of the induction may indicate the mode of activation: e.g. activation via phosphorylation or a signaling cascade may occur fast, while activation via transcription factors may take considerably longer. […] Of note, treatment concentrations may be sub-optimal for specific compounds, leading to false negative annotations.; conditions: Culturing Media DMEM/F12 (1:1), 1 % Penicillin/Streptomycin, 10% Fetal bovin serum Add-On: No, Screening Media Control DMEM/F12 (1:1), Screening Media Samples DMEM/F12 (1:1)
U2OS [1] = assay: as §1; conditions: Culturing Media DMEM, 1 % Penicillin/Streptomycin, 10% Fetal bovin serum Add-On: No, Screening Media Control DMEM, Screening Media Samples DMEM
U2OS [2] = assay: as §1; conditions: Culturing Media DMEM, 1 % Penicillin/Streptomycin, 10% Fetal bovin serum Add-On: No, Screening Media Control DMEM, Screening Media Samples DMEM; remark: listed apart in the source
[3] = Compound Concentration 0.5 uM, Timepoint 12 hours, 12 h, 0.5 µM
[4] = Compound Concentration 0.5 uM, Timepoint 24 hours, 24 h, 0.5 µM
[5] = Compound Concentration 0.5 uM, Timepoint 36 hours, 36 h, 0.5 µM
[6] = Compound Concentration 0.5 uM, Timepoint 60 hours, 60 h, 0.5 µM
[7] = Compound Concentration 2 uM, Timepoint 12 hours, 12 h, 2 µM
[8] = Compound Concentration 2 uM, Timepoint 24 hours, 24 h, 2 µM
[9] = Compound Concentration 2 uM, Timepoint 36 hours, 36 h, 2 µM
[10] = Compound Concentration 2 uM, Timepoint 60 hours, 60 h, 2 µM
[11] = Compound Concentration 10 uM, Timepoint 12 hours, 12 h, 10 µM
[12] = Compound Concentration 10 uM, Timepoint 24 hours, 24 h, 10 µM
[13] = Compound Concentration 10 uM, Timepoint 36 hours, 36 h, 10 µM
[14] = Compound Concentration 10 uM, Timepoint 60 hours, 60 h, 10 µM
[15] = Compound Concentration 0.5 uM, Timepoint 12 hours
[16] = Compound Concentration 0.5 uM, Timepoint 24 hours
[17] = Compound Concentration 0.5 uM, Timepoint 36 hours
[18] = Compound Concentration 0.5 uM, Timepoint 60 hours
[19] = Compound Concentration 2 uM, Timepoint 12 hours
[20] = Compound Concentration 2 uM, Timepoint 24 hours
[21] = Compound Concentration 2 uM, Timepoint 36 hours
[22] = Compound Concentration 2 uM, Timepoint 60 hours
[23] = Compound Concentration 10 uM, Timepoint 12 hours
[24] = Compound Concentration 10 uM, Timepoint 24 hours
[25] = Compound Concentration 10 uM, Timepoint 36 hours
[26] = Compound Concentration 10 uM, Timepoint 60 hours

| SMILES | autophagy induction (TERT-RPE1; [3]) | autophagy induction (TERT-RPE1; [4]) | autophagy induction (TERT-RPE1; [5]) | autophagy induction (TERT-RPE1; [6]) | autophagy induction (TERT-RPE1; [7]) | autophagy induction (TERT-RPE1; [8]) | autophagy induction (TERT-RPE1; [9]) | autophagy induction (TERT-RPE1; [11]) | autophagy induction (U2OS [1]; [15]) [%] | autophagy induction (U2OS [1]; [16]) [%] | autophagy induction (U2OS [1]; [17]) [%] | autophagy induction (U2OS [1]; [18]) [%] | autophagy induction (U2OS [1]; [19]) [%] | autophagy induction (U2OS [1]; [20]) [%] | autophagy induction (U2OS [1]; [21]) [%] | autophagy induction (U2OS [1]; [22]) [%] | autophagy induction (U2OS [1]; [23]) [%] | autophagy induction (U2OS [1]; [24]) [%] | autophagy induction (U2OS [1]; [25]) [%] | autophagy induction (U2OS [1]; [26]) [%] | further results |
| --- | --- | --- | --- | --- | --- | --- | --- | --- | --- | --- | --- | --- | --- | --- | --- | --- | --- | --- | --- | --- | --- |
| FC(F)(F)c1c(N2CCC(c3ccccc3)CC2)ccn2c(CC3CC3)nnc12 | 0.8285% and 1.833% | -1.6355% and 0.4371% | -2.42% and 3.239% | -6.544% and 5.154% | -0.736% and 6.309% | -0.3973% and 6.29% | -4.125% and 5.099% | 0.02052% and 7.4327% | -3.682 | -3.457 | 1345.14 | -2.1724 | -2.443 | -4.21 | -60.9304 | -2.478 | 1.237 | -0.8788 | -59.5065 | -0.8045 | autophagy induction (TERT-RPE1; [10]): -2.871% and 7.601%; autophagy induction (TERT-RPE1; [12]): -1.251% and 7.807%; autophagy induction (TERT-RPE1; [13]): -2.896% and 10.4333%; autophagy induction (TERT-RPE1; [14]): -4.9464% and 19.419%; autophagy induction (U2OS [2]; [15]): 6.212%; autophagy induction (U2OS [2]; [16]): 3.779%; autophagy induction (U2OS [2]; [17]): -3.086%; autophagy induction (U2OS [2]; [18]): -2.905%; autophagy induction (U2OS [2]; [19]): -8.584%; autophagy induction (U2OS [2]; [20]): -5.642%; autophagy induction (U2OS [2]; [21]): -3.294%; autophagy induction (U2OS [2]; [22]): -4.323%; autophagy induction (U2OS [2]; [23]): -9.128%; autophagy induction (U2OS [2]; [24]): -9.508%; autophagy induction (U2OS [2]; [25]): -1.15%; autophagy induction (U2OS [2]; [26]): -1.079% |
| c1cc(CN2CCCNCCNCCCNCC2)ccc1CN1CCCNCCNCCCNCC1 [PLERIXAFOR] | -4.475% and 7.798% | -3.816% and 9.011% | -5.185% and 14.9232% | -8.266% and 14.0932% | -1.002% and 11.2768% | -1.015% and 15.5767% | -0.9806% and 19.0771% | -0.2124% and 10.1362% | 1.944 | -0.47 | 1403.21 | -0.2952 | -1.895 | -4.5042 | -61.4276 | -2.96 | -9.041 | -7.066 | -62.672 | -3.919 | autophagy induction (TERT-RPE1; [10]): -1.796% and 21.8048%; autophagy induction (U2OS [2]; [15]): 9.361%; autophagy induction (U2OS [2]; [16]): 4.086%; autophagy induction (U2OS [2]; [17]): 3.942%; autophagy induction (U2OS [2]; [18]): -10.4654%; autophagy induction (U2OS [2]; [19]): -10.5746%; autophagy induction (U2OS [2]; [20]): -17.2139%; autophagy induction (U2OS [2]; [21]): -19.8311%; autophagy induction (U2OS [2]; [22]): -28.2789%; autophagy induction (U2OS [2]; [23]): -19.8514%; autophagy induction (U2OS [2]; [24]): -21.1534%; autophagy induction (U2OS [2]; [25]): -25.1466%; autophagy induction (U2OS [2]; [26]): -33.2742% |
| CN1CCCC(n2nc(Cc3ccc(Cl)cc3)c3ccccc3c2=O)CC1.Cl (centres undefined) [AZELASTINE HYDROCHLORIDE] | -4.87% and -1.0131% | -4.869% and -0.0662% | -3.53% and 2.514% | -2.083% and 5.845% | 2.2259% and 11.1438% | 1.534% and 9.267% | 3.816% and 8.147% | 7.066% and 3.619% | -1.752 | -3.995 | 606.483 | -3.291 | -6.53 | -3.506 | -60.9405 | -3.3303 | -10.1026 | -0.8464 | -60.027 | -3.2037 | autophagy induction (TERT-RPE1; [12]): 11.8407% and 4.087%; autophagy induction (TERT-RPE1; [13]): 14.8577% and 6.608%; autophagy induction (TERT-RPE1; [14]): 14.3498% and 13.0687%; autophagy induction (U2OS [2]; [15]): 28.6217%; autophagy induction (U2OS [2]; [16]): 20.8368%; autophagy induction (U2OS [2]; [17]): 11.7893%; autophagy induction (U2OS [2]; [18]): 4.08%; autophagy induction (U2OS [2]; [19]): -10.9736%; autophagy induction (U2OS [2]; [20]): -5.743%; autophagy induction (U2OS [2]; [21]): -1.742%; autophagy induction (U2OS [2]; [22]): -7.358%; autophagy induction (U2OS [2]; [23]): 1.941%; autophagy induction (U2OS [2]; [24]): 10.8687%; autophagy induction (U2OS [2]; [25]): 9.578%; autophagy induction (U2OS [2]; [26]): 17.8748% |

Source: ChEMBL document CHEMBL5724696, “Autophagy assay results for EUbOPEN Chemogenomics Library” (2024)
